The results in this text go back to patent US8846746B2, “Pyrazole compound and pharmaceutical use thereof” (Japan Tobacco Inc., priority 2011, dated 2014).

pIC50: −log10 of the molar value.

The first assay deals with human SGLT1 (Homo sapiens (Human), UniProt P13866). The assay is described as follows: SGLT1 inhibitory activity: 14C-AMG uptake into CHO-K1 cell line stably expressing human SGLT1. The class given is cell-based. To be noted: 14C-AMG uptake, CHO-K1 cells stably expressing human SGLT1. In short, it runs like this: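 Human SGLT1 was stably expressed in CHO-K1 cells. Cells were first held 20 min in sodium-free buffer, then exposed to compound in Na(+)/BSA buffer with tracer and AMG (2 mM in the added solution).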
human SGLT1, sequence (P13866 whole entry): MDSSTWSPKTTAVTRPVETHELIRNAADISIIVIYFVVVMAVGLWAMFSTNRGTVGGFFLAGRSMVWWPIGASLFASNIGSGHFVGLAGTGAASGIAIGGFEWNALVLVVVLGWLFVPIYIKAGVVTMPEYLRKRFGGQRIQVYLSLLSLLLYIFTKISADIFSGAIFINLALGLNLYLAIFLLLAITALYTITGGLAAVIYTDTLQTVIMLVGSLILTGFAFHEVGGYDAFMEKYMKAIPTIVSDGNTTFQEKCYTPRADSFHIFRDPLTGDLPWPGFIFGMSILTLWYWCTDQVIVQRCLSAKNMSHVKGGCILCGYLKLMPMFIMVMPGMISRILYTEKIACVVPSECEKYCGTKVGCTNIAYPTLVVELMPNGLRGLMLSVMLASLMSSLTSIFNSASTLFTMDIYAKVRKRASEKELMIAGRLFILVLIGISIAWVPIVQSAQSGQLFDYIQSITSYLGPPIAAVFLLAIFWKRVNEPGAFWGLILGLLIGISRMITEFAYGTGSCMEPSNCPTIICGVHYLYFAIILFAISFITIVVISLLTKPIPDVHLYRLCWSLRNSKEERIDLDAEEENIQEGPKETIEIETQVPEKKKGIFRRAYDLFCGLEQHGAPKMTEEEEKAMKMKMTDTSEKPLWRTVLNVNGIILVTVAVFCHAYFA
The pIC50 is the negative decadic logarithm of the IC50, by convention in mol/L. Turning to `CCOc1cc(-n2nc(NC(=O)[C@@H]3CNC(=O)C3)cc2-c2cccc(OC(F)(F)F)c2)ccc1F` [Example 421], the pIC50 is 7.70.
Consider `CC(C)Oc1cc(-n2nc(NC(=O)[C@@H]3CNC(=O)C3)cc2-c2cccc(OC(F)(F)F)c2)ccc1F` [Example 422], for which the pIC50 was 7.85.
On the same count and under the same terms, with `CCCOc1cc(-n2nc(NC(=O)[C@@H]3CNC(=O)C3)cc2-c2cccc(OC(F)(F)F)c2)ccc1F` [Example 423] the figure was 7.80.
The compound `CCCc1cccc(-c2cc(NC(=O)[C@@H]3CNC(=O)C3)nn2-c2cccc(OC(C)(C)C)c2)c1` [Example 435] had a pIC50 of 8.46.
As for `O=C1C[C@H](C(=O)Nc2cc(-c3cccc(OC(F)(F)F)c3)n(-c3cccc(OCc4ccccc4)c3)n2)CN1` [Example 436], the pIC50 is 7.72.
`C[C@@H](OCc1cccc(-c2cc(NC(=O)[C@@H]3CNC(=O)C3)nn2-c2cccc(OCc3ccccc3)c2)c1)C(F)(F)F` [Example 438] gave a pIC50 of 8.51.
As to `C[C@@H](OCc1cccc(-c2cc(NC(=O)[C@@H]3CNC(=O)C3)nn2-c2cccc(O)c2)c1)C(F)(F)F` [Example 441], the pIC50 was 8.05.
On to `COc1cccc(-n2nc(NC(=O)[C@@H]3CNC(=O)C3)cc2-c2cccc(OC(F)(F)F)c2)c1` [Example 442], for which the pIC50 was 7.82.
`CCOc1cccc(-n2nc(NC(=O)[C@@H]3CNC(=O)C3)cc2-c2cccc(OC(F)(F)F)c2)c1` [Example 443] showed a pIC50 of 7.96.
For the compound `CCCOc1cccc(-n2nc(NC(=O)[C@@H]3CNC(=O)C3)cc2-c2cccc(OC(F)(F)F)c2)c1` [Example 444], the pIC50 was 8.00.
Take `CC(C)Oc1cccc(-n2nc(NC(=O)[C@@H]3CNC(=O)C3)cc2-c2cccc(OC(F)(F)F)c2)c1` [Example 445]: the pIC50 was 8.17.
On to `COc1cccc(-n2nc(NC(=O)[C@@H]3CNC(=O)C3)cc2-c2cccc(COCC(F)(F)F)c2)c1` [Example 446], for which the pIC50 was 8.25.
As for `CCOc1cccc(-n2nc(NC(=O)[C@@H]3CNC(=O)C3)cc2-c2cccc(COCC(F)(F)F)c2)c1` [Example 447], the negative logarithm of the IC50 (pIC50) is 8.33.
The same measure, in the same setting: under `CCCOc1cccc(-n2nc(NC(=O)[C@@H]3CNC(=O)C3)cc2-c2cccc(COCC(F)(F)F)c2)c1` [Example 448] stands 8.37.
In turn, `CC(C)Oc1cccc(-n2nc(NC(=O)[C@@H]3CNC(=O)C3)cc2-c2cccc(COCC(F)(F)F)c2)c1` [Example 449] gave a pIC50 of 8.64.
As for `COCCOc1cccc(-n2nc(NC(=O)[C@@H]3CNC(=O)C3)cc2-c2cccc(COCC(F)(F)F)c2)c1` [Example 450], the pIC50 is 8.09.
Still for that read-out and setting: under `COc1cccc(-n2nc(NC(=O)[C@@H]3CNC(=O)C3)cc2-c2cccc(CO[C@H](C)C(F)(F)F)c2)c1` [Example 451] stands 8.48; under `CCOc1cccc(-n2nc(NC(=O)[C@@H]3CNC(=O)C3)cc2-c2cccc(CO[C@H](C)C(F)(F)F)c2)c1` [Example 452], 8.77.
Regarding `CCCOc1cccc(-n2nc(NC(=O)[C@@H]3CNC(=O)C3)cc2-c2cccc(CO[C@H](C)C(F)(F)F)c2)c1` [Example 453], the pIC50 is 8.77.
On to `CC(C)Oc1cccc(-n2nc(NC(=O)[C@@H]3CNC(=O)C3)cc2-c2cccc(CO[C@H](C)C(F)(F)F)c2)c1` [Example 454], for which the pIC50 is 8.70.
On to `COCCOc1cccc(-n2nc(NC(=O)[C@@H]3CNC(=O)C3)cc2-c2cccc(CO[C@H](C)C(F)(F)F)c2)c1` [Example 455], for which the pIC50 was 8.51.
`COCCOc1cc(-n2nc(NC(=O)[C@@H]3CNC(=O)C3)cc2-c2cccc(CO[C@H](C)C(F)(F)F)c2)ccc1F` [Example 456] showed a pIC50 of 8.47.
As to `COc1cc(-n2nc(NC(=O)[C@@H]3CNC(=O)C3)cc2-c2cccc(CO[C@H](C)C(F)(F)F)c2)ccc1F` [Example 457], the pIC50 is 8.43.
In the case of `CCCc1cccc(-c2cc(NC(=O)[C@@H]3CNC(=O)C3)nn2-c2cccc(COC(C)C)c2)c1` [Example 459], the negative-log IC50 (pIC50) is 8.32.
Consider `CCOc1ccc(F)c(-n2nc(NC(=O)[C@@H]3CNC(=O)C3)cc2-c2cccc(COCC(F)(F)F)c2)c1` [Example 460], for which the pIC50 is 8.68.
The same measure, in the same setting: with `CC(C)Oc1ccc(F)c(-n2nc(NC(=O)[C@@H]3CNC(=O)C3)cc2-c2cccc(COCC(F)(F)F)c2)c1` [Example 461] the figure was 8.85; with `COCCOc1ccc(F)c(-n2nc(NC(=O)[C@@H]3CNC(=O)C3)cc2-c2cccc(COCC(F)(F)F)c2)c1` [Example 462], 8.47.
In the case of `CCOc1ccc(F)c(-n2nc(NC(=O)[C@@H]3CNC(=O)C3)cc2-c2cccc(CO[C@H](C)C(F)(F)F)c2)c1` [Example 463], the pIC50 is 8.96.
For the compound `CC(C)Oc1ccc(F)c(-n2nc(NC(=O)[C@@H]3CNC(=O)C3)cc2-c2cccc(CO[C@H](C)C(F)(F)F)c2)c1` [Example 464], the pIC50 is 8.85.
As for `COCCOc1ccc(F)c(-n2nc(NC(=O)[C@@H]3CNC(=O)C3)cc2-c2cccc(CO[C@H](C)C(F)(F)F)c2)c1` [Example 465], the pIC50 was 8.77.
With `O=C1C[C@H](C(=O)Nc2cc(-c3cccc(OC(F)(F)F)c3)n(-c3ccccc3F)n2)CN1` [Example 466], the pIC50 is 7.80.
As for `O=C1C[C@H](C(=O)Nc2cc(-c3cccc(OC(F)(F)F)c3)n(-c3cccc(F)c3)n2)CN1` [Example 467], the pIC50 was 7.59.
For the compound `O=C1C[C@H](C(=O)Nc2cc(-c3cccc(COCC(F)(F)F)c3)n(-c3cccc(F)c3)n2)CN1` [Example 468], the pIC50 is 7.77.
`C[C@@H](OCc1cccc(-c2cc(NC(=O)[C@@H]3CNC(=O)C3)nn2-c2cccc(F)c2)c1)C(F)(F)F` [Example 469] had a negative-log IC50 (pIC50) of 8.28.
Consider `CCC(C)(C)C(=O)c1cccc(-c2cc(NC(=O)[C@@H]3CNC(=O)C3)nn2-c2ccccc2)c1` [Example 470], for which the pIC50 was 8.15.
Still for that read-out and setting: with `O=C1C[C@H](C(=O)Nc2cc(-c3cccc(COCC(F)(F)F)c3)n(-c3ccccc3F)n2)CN1` [Example 471] the figure was 7.82.
As to `C[C@@H](OCc1cccc(-c2cc(NC(=O)[C@@H]3CNC(=O)C3)nn2-c2ccccc2F)c1)C(F)(F)F` [Example 472], the pIC50 was 8.33.
Turning to `O=C1C[C@H](C(=O)Nc2cc(-c3cccc(OC(F)(F)F)c3)n(-c3ccccc3Cl)n2)CN1` [Example 473], the pIC50 is 8.12.
On the same count and under the same terms, under `O=C1C[C@H](C(=O)Nc2cc(-c3cccc(COCC(F)(F)F)c3)n(-c3ccccc3Cl)n2)CN1` [Example 474] stands 8.14; under `C[C@@H](OCc1cccc(-c2cc(NC(=O)[C@@H]3CNC(=O)C3)nn2-c2ccccc2Cl)c1)C(F)(F)F` [Example 475], 8.51; under `COc1cccc(-n2nc(NC(=O)[C@@H]3CNC(=O)C3)cc2-c2cccc(OC(F)(F)F)c2)c1F` [Example 476], 7.68.
In the case of `CCOc1cccc(-n2nc(NC(=O)[C@@H]3CNC(=O)C3)cc2-c2cccc(OC(F)(F)F)c2)c1F` [Example 477], the pIC50 was 7.60.
`CC(C)Oc1cccc(-n2nc(NC(=O)[C@@H]3CNC(=O)C3)cc2-c2cccc(OC(F)(F)F)c2)c1F` [Example 478] had a pIC50 of 7.44.
Still for that read-out and setting: with `COc1cccc(-n2nc(NC(=O)[C@@H]3CNC(=O)C3)cc2-c2cccc(COCC(F)(F)F)c2)c1F` [Example 480] the figure was 8.17.
On to `CCOc1cccc(-n2nc(NC(=O)[C@@H]3CNC(=O)C3)cc2-c2cccc(COCC(F)(F)F)c2)c1F` [Example 481], for which the pIC50 was 8.06.
The compound `CC(C)Oc1cccc(-n2nc(NC(=O)[C@@H]3CNC(=O)C3)cc2-c2cccc(COCC(F)(F)F)c2)c1F` [Example 482] gave a pIC50 of 7.92.
`COCCOc1cccc(-n2nc(NC(=O)[C@@H]3CNC(=O)C3)cc2-c2cccc(COCC(F)(F)F)c2)c1F` [Example 483] showed a pIC50 of 7.23.
In turn, `COc1cccc(-n2nc(NC(=O)[C@@H]3CNC(=O)C3)cc2-c2cccc(CO[C@H](C)C(F)(F)F)c2)c1F` [Example 484] gave a pIC50 of 8.38.
Regarding `CCOc1cccc(-n2nc(NC(=O)[C@@H]3CNC(=O)C3)cc2-c2cccc(CO[C@H](C)C(F)(F)F)c2)c1F` [Example 485], the pIC50 is 8.39.
On to `CC(C)Oc1cccc(-n2nc(NC(=O)[C@@H]3CNC(=O)C3)cc2-c2cccc(CO[C@H](C)C(F)(F)F)c2)c1F` [Example 486], for which the pIC50 is 8.19.
Regarding `COCCOc1cccc(-n2nc(NC(=O)[C@@H]3CNC(=O)C3)cc2-c2cccc(CO[C@H](C)C(F)(F)F)c2)c1F` [Example 487], the pIC50 is 7.64.
`O=C1C[C@H](C(=O)Nc2cc(-c3cc(F)cc(COCC(F)(F)F)c3)n(-c3ccccc3)n2)CN1` [Example 488] had a pIC50 of 7.74.

The same assay, now with this note: CHO-K1, at 0.1 uM.
What is called inhibition is how much of the control response was suppressed. Low readings indicate little suppression, high ones strong suppression. Compound `C[C@@H](OCc1ccc(F)c(-c2cc(NC(=O)[C@@H]3CNC(=O)C3)nn2-c2ccccc2)c1)C(F)(F)F` [Example 427] yielded an inhibition at 0.1 µM of 49%.
Turning to `O=C1C[C@H](C(=O)Nc2cc(-c3cccc(CN4CCCC4)c3)n(-c3ccccc3)n2)CN1` [Example 428], the inhibition at 0.1 µM was 31%.
The compound `CCCNC(=O)c1cccc(-c2cc(NC(=O)[C@@H]3CNC(=O)C3)nn2-c2ccccc2)c1` [Example 429] displayed an inhibition at 0.1 µM of 40%.
`CCCN(C)C(=O)c1cccc(-c2cc(NC(=O)[C@@H]3CNC(=O)C3)nn2-c2ccccc2)c1` [Example 430] showed an inhibition at 0.1 µM of 8%.
On the same count and under the same terms, with `CC(C)NC(=O)c1cccc(-c2cc(NC(=O)[C@@H]3CNC(=O)C3)nn2-c2ccccc2)c1` [Example 431] the figure was 21%.
Regarding `CC(C)N(C)C(=O)c1cccc(-c2cc(NC(=O)[C@@H]3CNC(=O)C3)nn2-c2ccccc2)c1` [Example 432], the inhibition at 0.1 µM stood at 14%.
`O=C1C[C@H](C(=O)Nc2cc(-c3cccc(C(=O)NCC(F)(F)F)c3)n(-c3ccccc3)n2)CN1` [Example 433] returned an inhibition at 0.1 µM of 8%.
On to `O=C1C[C@H](C(=O)Nc2cc(-c3cccc(OC(F)(F)F)c3)n(-c3cccc(O)c3)n2)CN1` [Example 439], for which the inhibition at 0.1 µM turned out to be 45%.
As for `COCCOc1cccc(-n2nc(NC(=O)[C@@H]3CNC(=O)C3)cc2-c2cccc(OC(F)(F)F)c2)c1F` [Example 479], the inhibition at 0.1 µM came to 46%.
